# In patent publication US6737383B1, “Herbicidal oxadiazolidines” (priority 1999, dated 2004):
# Legend:
# soybean = assay: Test B pre/postemergence soybean; assay type: in vivo, Glycine max
# Method in brief: (§1)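 Test chemicals in a non-phytotoxic solvent mixture with surfactant were sprayed preemergence onto planted seeds and postemergence onto plants 2 to 18 cm tall (1- to 4-leaf stage). After twelve to sixteen days in a greenhouse, injury was visually rated against untreated controls from 0 (no effect) to 10 (complete control).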
# velvetleaf = assay: Test B pre/postemergence velvetleaf; assay type: in vivo, Abutilon theophrasti
# Method in brief: as §1
# duck salad = assay: Test B flood test duck salad; assay type: in vivo, Heteranthera limosa
# Method in brief: (§2)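 Each value is a visual injury score relative to controls, with 10 meaning complete control and 0 no effect. Evaluation took place twelve to sixteen days after the 2-leaf-stage plants were treated and kept in the greenhouse.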
# rape = assay: Test B pre/postemergence rape; assay type: in vivo, Brassica napus
# Method in brief: as §1
# morningglory = assay: Test B pre/postemergence morningglory; assay type: in vivo, Ipomoea hederacea
# Method in brief: as §1
# sugar beet = assay: Test B pre/postemergence sugar beet; assay type: in vivo, Beta vulgaris
# Method in brief: as §1
# giant foxtail = assay: Test B pre/postemergence giant foxtail; assay type: in vivo, Setaria faberii
# Method in brief: as §1
# corn = assay: Test B pre/postemergence corn; assay type: in vivo, Zea mays
# Method in brief: as §1
# wild oat = assay: Test B pre/postemergence wild oat; assay type: in vivo, Avena fatua
# Method in brief: as §1
# cocklebur = assay: Test B pre/postemergence cocklebur; assay type: in vivo, Xanthium strumarium; details: for Cocklebur plant response rating: Postemergence; for Plant response rating, Cocklebur: Preemergence
# Method in brief: as §1
# surinam grass = assay: Test B pre/postemergence surinam grass; assay type: in vivo, Brachiaria decumbens
# Method in brief: as §1
# wheat = assay: Test B pre/postemergence wheat; assay type: in vivo, Triticum aestivum
# Method in brief: as §1
# purple nutsedge = assay: Test B pre/postemergence purple nutsedge; assay type: in vivo, Cyperus rotundus
# Method in brief: as §1
# smallflower flatsedge = assay: Test B flood test smallflower flatsedge; assay type: in vivo, Cyperus difformis
# Method in brief: as §2
# blackgrass = assay: Test B pre/postemergence blackgrass; assay type: in vivo, Alopecurus myosuroides
# Method in brief: as §1
# crabgrass = assay: Test B pre/postemergence crabgrass; assay type: in vivo, Digitaria sanguinalis
# Method in brief: as §1
# [1] = Postemergence, Rate 62 g/ha, scale 0 to 10, 0 is no effect, 10 is complete control
# [2] = Postemergence, Rate 250 g/ha, scale 0 to 10, 0 no effect, 10 complete control
# [3] = Preemergence, Rate 62 g/ha, scale 0 to 10, 0 is no effect, 10 is complete control
# [4] = Preemergence, Rate 125 g/ha, scale 0 to 10 (0 no effect, 10 complete control)
# [5] = Preemergence, Rate 250 g/ha, scale of 0 to 10 where 0 is no effect and 10 is complete control
# [6] = Preemergence, Rate 500 g/ha, scale 0 (no effect) to 10 (complete control)
# [7] = Rate 125 g/ha, Postemergence, scale 0 to 10, 0 no effect, 10 complete control
# [8] = Rate 125 g/ha, Postemergence section (flood test species), scale 0 to 10, 0 no effect, 10 complete control
# [9] = Rate 250 g/ha, headed Pre-emergence (flood test species), scale 0 to 10 (0 no effect, 10 complete control)
# [10] = Rate 500 g/ha, headed Pre-emergence (flood test species), scale 0 to 10 (0 no effect, 10 complete control)
# [11] = Rate 2000 g/ha, Pre-emergence (as headed), scale 0 to 10
# [12] = flood test, listed under Postemergence, Rate 250 g/ha, scale 0 to 10, 0 no effect, 10 complete control
# [13] = Rate 500 g/ha, Postemergence, 0 to 10 scale (0 no effect, 10 complete control)
# [14] = Rate 62 g/ha, scale 0 to 10, 0 is no effect, 10 is complete control
structure (smiles),measurement,setting,value
Cc1ccccc1-n1c(=O)on(C(=O)N(c2ccccc2)C(C)C)c1=O [Compound 36],Soybean plant response rating,soybean; [1],5
same,Soybean plant response rating,soybean; [2],5
same,"Plant response rating, Soybean",soybean; [3],0
same,"Plant response rating, Soybean",soybean; [4],0
same,"Plant response rating, Soybean",soybean; [5],0
same,Soybean plant response rating,soybean; [6],0
same,Soybean plant response rating,soybean; [7],5
same,Velvetleaf plant response rating,velvetleaf; [1],0
same,Velvetleaf plant response rating,velvetleaf; [2],0
same,"Plant response rating, Velvetleaf",velvetleaf; [3],0
same,"Plant response rating, Velvetleaf",velvetleaf; [4],0
same,"Plant response rating, Velvetleaf",velvetleaf; [5],0
same,Velvetleaf plant response rating,velvetleaf; [6],0
same,Velvetleaf plant response rating,velvetleaf; [7],0
same,Ducksalad plant response rating,duck salad; [1],0
same,Ducksalad plant response rating,duck salad; [8],0
same,Ducksalad plant response rating,duck salad; [9],0
same,Ducksalad plant response rating,"duck salad; Rate 500 g/ha, Postemergence section of Table B, 0 to 10 scale (0 no effect, 10 complete control)",0
same,"Plant response rating, Ducksalad",duck salad; [10],0
same,Ducksalad plant response rating,"duck salad; Rate 1000 g/ha, Pre-emergence (as headed), scale 0 to 10",0
same,Ducksalad plant response rating,duck salad; [11],0
same,Ducksalad plant response rating,duck salad; [12],0
same,Rape plant response rating,rape; [1],0
same,Rape plant response rating,rape; [2],0
same,"Plant response rating, Rape",rape; [3],0
same,"Plant response rating, Rape",rape; [4],0
same,"Plant response rating, Rape",rape; [5],0
same,Rape plant response rating,rape; [6],3
same,Rape plant response rating,rape; [7],0
same,Rape plant response rating,rape; [13],0
same,Morningglory plant response rating,morningglory; [1],4
same,Morningglory plant response rating,morningglory; [2],9
same,"Plant response rating, Morningglory",morningglory; [3],0
same,"Plant response rating, Morningglory",morningglory; [4],0
same,"Plant response rating, Morningglory",morningglory; [5],0
same,Morningglory plant response rating,morningglory; [6],0
same,Morningglory plant response rating,morningglory; [7],9
same,Morningglory plant response rating,morningglory; [13],9
same,Sugarbeets plant response rating,sugar beet; [1],0
same,Sugarbeets plant response rating,sugar beet; [2],0
same,"Plant response rating, Sugarbeets",sugar beet; [3],0
same,"Plant response rating, Sugarbeets",sugar beet; [4],0
same,"Plant response rating, Sugarbeets",sugar beet; [5],0
same,Sugarbeets plant response rating,sugar beet; [6],5
same,Sugarbeets plant response rating,sugar beet; [7],0
same,Giant foxtail plant response rating,giant foxtail; [1],0
same,Giant foxtail plant response rating,giant foxtail; [2],3
same,"Plant response rating, Giant foxtail",giant foxtail; [3],10
same,"Plant response rating, Giant foxtail",giant foxtail; [4],10
same,"Plant response rating, Giant foxtail",giant foxtail; [5],10
same,Giant foxtail plant response rating,giant foxtail; [6],10
same,Giant foxtail plant response rating,giant foxtail; [7],3
same,Giant foxtail plant response rating,giant foxtail; [13],3
same,Corn plant response rating,corn; [1],0
same,Corn plant response rating,corn; [2],0
same,"Plant response rating, Corn",corn; [3],0
same,"Plant response rating, Corn",corn; [4],0
same,"Plant response rating, Corn",corn; [5],0
same,Corn plant response rating,corn; [6],0
same,Corn plant response rating,corn; [7],0
same,Corn plant response rating,corn; [13],0
same,Wild oats plant response rating,wild oat; [1],0
same,Wild oats plant response rating,wild oat; [2],0
same,"Plant response rating, Wild oats",wild oat; [4],2
same,"Plant response rating, Wild oats",wild oat; [5],6
same,Wild oats plant response rating,wild oat; [6],7
same,Wild oats plant response rating,wild oat; [7],0
same,Cocklebur plant response rating,cocklebur; [14],0
same,Cocklebur plant response rating,"cocklebur; Rate 250 g/ha, scale 0 to 10, 0 no effect, 10 complete control",0
same,"Plant response rating, Cocklebur",cocklebur; [14],0
same,"Plant response rating, Cocklebur","cocklebur; Rate 125 g/ha, scale 0 to 10 (0 no effect, 10 complete control)",0
same,"Plant response rating, Cocklebur","cocklebur; Rate 250 g/ha, scale of 0 to 10 where 0 is no effect and 10 is complete control",0
same,Cocklebur plant response rating,"cocklebur; Rate 125 g/ha, scale 0 to 10, 0 no effect, 10 complete control",0
same,Cocklebur plant response rating,"cocklebur; Rate 500 g/ha, 0 to 10 scale (0 no effect, 10 complete control)",4
same,B. signalgrass plant response rating,surinam grass; [1],0
same,B. signalgrass plant response rating,surinam grass; [2],0
same,"Plant response rating, B. signalgrass",surinam grass; [3],5
same,"Plant response rating, B. signalgrass",surinam grass; [4],8
same,"Plant response rating, B. signalgrass",surinam grass; [5],8
same,B. signalgrass plant response rating,surinam grass; [6],8
same,B. signalgrass plant response rating,surinam grass; [7],0
same,B. signalgrass plant response rating,surinam grass; [13],4
same,Wheat plant response rating,wheat; [1],0
same,Wheat plant response rating,wheat; [2],0
same,"Plant response rating, Wheat",wheat; [3],0
same,"Plant response rating, Wheat",wheat; [4],0
same,"Plant response rating, Wheat",wheat; [5],0
same,Wheat plant response rating,wheat; [6],0
same,Wheat plant response rating,wheat; [7],0
same,Nutsedge plant response rating,purple nutsedge; [1],0
same,Nutsedge plant response rating,purple nutsedge; [2],0
same,"Plant response rating, Nutsedge",purple nutsedge; [3],0
same,"Plant response rating, Nutsedge",purple nutsedge; [4],0
same,"Plant response rating, Nutsedge",purple nutsedge; [5],0
same,Nutsedge plant response rating,purple nutsedge; [6],0
same,Nutsedge plant response rating,purple nutsedge; [7],0
same,Nutsedge plant response rating,purple nutsedge; [13],0
same,S. Flatsedge plant response rating,smallflower flatsedge; [1],0
same,S. Flatsedge plant response rating,"smallflower flatsedge; Pre-emergence, Rate 1000 g/ha, scale 0 to 10 (0 no effect, 10 complete control)",0
same,S. Flatsedge plant response rating,smallflower flatsedge; [8],0
same,S. Flatsedge plant response rating,smallflower flatsedge; [9],0
same,"Plant response rating, S. Flatsedge",smallflower flatsedge; [10],0
same,S. Flatsedge plant response rating,smallflower flatsedge; [11],0
same,S. Flatsedge plant response rating,smallflower flatsedge; [12],0
same,Blackgrass plant response rating,blackgrass; [1],0
same,Blackgrass plant response rating,blackgrass; [2],4
same,"Plant response rating, Blackgrass",blackgrass; [3],4
same,"Plant response rating, Blackgrass",blackgrass; [4],5
same,"Plant response rating, Blackgrass",blackgrass; [5],6
same,Blackgrass plant response rating,blackgrass; [6],7
same,Blackgrass plant response rating,blackgrass; [7],3
same,Blackgrass plant response rating,blackgrass; [13],6
same,Crabgrass plant response rating,crabgrass; [1],3
same,Crabgrass plant response rating,crabgrass; [2],3
same,"Plant response rating, Crabgrass",crabgrass; [3],8
same,"Plant response rating, Crabgrass",crabgrass; [4],9
same,"Plant response rating, Crabgrass",crabgrass; [5],9
same,Crabgrass plant response rating,crabgrass; [6],10
same,Crabgrass plant response rating,crabgrass; [7],3
same,Crabgrass plant response rating,crabgrass; [13],8
